Source: patent publication US4551547A, “Biocidal 2-aryl-1, 3-cyclopentanedione enol ester compounds” (Union Carbide Corporation, priority 1983, dated 1985)
In brackets after ≈: the same amount, converted by molar mass.

Experiments:
[1] = test system: egg of the two-spotted mite; assay: Mite Ovicide Test (eggs); assay type: in vivo, Tetranychus urticae (Koch); parameters: key to Miticidal, Egg: A: Excellent Control; B: Partial Control; No Control; settings: for Miticidal, Egg: Table II, unhatched eggs after four days; for LC50: Tetranychus urticae, Table III, ppm required for a 50 percent kill of eggs, read-out: Miticidal LD50, Egg
Procedure: Suspensions of the test compounds were prepared by dissolving one gram of compound in 50 milliliters of acetone in which had been dissolved 0.1 gram (10 percent of the weight of compound) of an alkylphenoxyethanol sufactant, as an emulsifying or dispersing agent. The resulting solution was mixed into 160 milliliters of water to give roughly 200 milliliters of a suspension containing the compound in finely divided form. The thus prepared stock suspension contained 0.5 percent by weight of compound. The test concentrations employed in the tests described below were obtained by diluting the stock suspension with water. The test procedures were as follows: The test organism was the egg of the two-spotted mite (Tetranychus urticae (Koch)), as obtained from adults reared on […] bean plants under controlled conditions of 80±5° F. and 50±5 percent relative humidity. Heavily infested leaves from a stock culture were placed on the primary leaves of two bean plants six to eight inches in height growing in a two-and-a-half inch clay pot. Females were allowed to oviposit for a period of 48 hours and the leaves of the infested plants were dipped in a solution containing 800 parts of tetraethyl pyrophosphate per million parts of water in order to destroy the reproductory forms and thus prevent further egg laying. […] The plants were allowed to dry thoroughly. The test compounds were formulated by diluting the stock suspension with water to give a suspension containing varying amounts of test compound per million parts of final formulation. The potted plants (one pot per compound) were placed on a revolving turntable and sprayed with 100-110 milliliters of test compound formulation by use of a DeVilbis spray gun set at 40 spig. air pressure. This application which lasted 30 seconds, was sufficient to wet the plants to run-off. As a control, 100-110 milliliters of a water solution containing acetone and emulsifier in the same concentrations as the test compound formulation, but containing no test compound, were also sprayed on plants infested with eggs. The sprayed plants were held at 80±5° F. and 50±5 percent relative humidity for four days, after which a microscopic examination was made of unhatched (dead) and hatched (living) eggs. In these tests the pesticidal activity of the compounds against mites and mite eggs was rated as follows: Tests were conducted in accordance with the procedures given at pages 17 to 21 supra. The results are expressed in the same manner as used in Table II, except with respect to miticidal activity. For mite adult and mite egg comparison purposes, results are given in parts per million (ppm) required for a 50 percent kill of mites or eggs, respectively.

Mustard = assay: Preliminary herbicide seed germination test (pre-emergent), mustard; assay type: in vivo, Brassica pincea var. foliosa (Florida broadleaf); parameters: key: 5: no seedling emerged; 4: few seedlings emerged and/or very severe stunting; 3: moderate reduction in stand and/or moderate stunting.; 2: very slight reduction in stand and/or slight stunting; 1: no injury, seedlings appear no different with respect to stand or growth than untreated controls; settings: ten to twelve days after application
Procedure: Suspensions of the test compounds were prepared by dissolving one gram of compound in 50 milliliters of acetone in which had been dissolved 0.1 gram (10 percent of the weight of compound) of an alkylphenoxyethanol sufactant, as an emulsifying or dispersing agent. The resulting solution was mixed into 160 milliliters of water to give roughly 200 milliliters of a suspension containing the compound in finely divided form. The thus prepared stock suspension contained 0.5 percent by weight of compound. The test concentrations employed in the tests described below were obtained by diluting the stock suspension with water. The test procedures were as follows:
The following seeds were used in this test:
Mustard--Brassica pincea var. foliosa (Florida broadleaf)
Two […] mixtures were prepared as follows:
Each of the above mixtures was rolled separately in 5 gallon containers for approximately one-half hour on ball mill to insure uniform mixing of seeds and soil. For each compound four 3-inch pots were filled with soil to within 11/2 inches of top of pots. To two of these pots were added 70 cc. of Mixture I. To the remaining 2 pots were added 70 cc. of Mixture II. The seed-soil mixture was tamped firmly, and the pots were removed to the greenhouse and watered lightly. About 2 hours after planting, 25 milliliters of the test formulation were added to one pot containing Mixture I and one pot containing Mixture II. An equal volume of a water solution containing acetone and an emulsifier in the same concentration as the herbicidal mixture but without the candidate herbicide was also added to each of the soil-seed mixtures. These pots are used as check or control units. The test compounds were formulated by diluting the stock suspension with water to obtain the desired concentration of the compound in parts per million of the final formulation. Each compound was tested at the same concentration. […] Ratings were made according to the following designations: […]

| SMILES | Miticidal, Egg [1] | Pre-emergent Herbicidal, Mustard (Mustard; Table II) | LC50 [1] [µg/mL] | Pre-emergent Herbicidal, Mustard (Mustard; Table III) |
| --- | --- | --- | --- | --- |
| CCCCCCCCCCCCCCCC(=O)OC1=C(c2cc(C)ccc2C)C(=O)C(C)C1 (centres unmarked) [Compound 18] | A | 1 | – | – |
| CCCCC(CC)C(=O)OC1=C(c2ccccc2C)C(=O)C2CCCCC12 (centres unmarked) [drawing 22] | – | – | 5 (≈ 13.6 µM) | 1 |
| CCCCC(CC)C(=O)OC1=C(c2cc(C)ccc2C)C(=O)CC1 (centres unmarked) [Compound 13] | A | 1 | – | – |
| CC(=O)OC1=C(c2ccccc2C)C(=O)C2CCCCC12 (centres unmarked) [Compound 19, 3-acetoxy-2-(2'-methylphenyl)-4,5,6,7,8,9-hexahydro-2-indenone] | A | 3 | – | – |
| CCCCCCCCCCCCCCCC(=O)OC1=C(c2ccccc2C)C(=O)C2CCCCC12 (centres unmarked) [drawing 17] | – | – | 500 (≈ 1040 µM) | 3 |
| Cc1ccc(C)c(C2=C(OC(=O)C(C)C)CC(C)C2=O)c1 (centres unmarked) [Compound 16] | B | 2 | – | – |
| CCCCC(CC)C(=O)OC1=C(c2ccc(Cl)cc2Cl)C(=O)CC1 (centres unmarked) [Compound 5] | A | 1 | – | – |
| Cc1ccccc1C1=C(OC(=O)C(C)(C)C)C2CCCCC2C1=O (centres unmarked) [Compound 22] | A | 3 | – | – |
| CCCCC(CC)C(=O)OC1=C(c2ccccc2C)C(=O)CC1 (centres unmarked) [Compound 7] | A | 1 | – | – |
| Cc1ccccc1C1=C(OC(=O)C(C)(C)C)c2ccccc2C1=O [reference compound] | – | – | 270 (≈ 843 µM) | 2 |
| CCCCCCCCCC(=O)OC1=C(c2ccccc2C)C(=O)C2CCCCC12 (centres unmarked) [drawing 15] | – | – | 1 (≈ 2.52 µM) | 3 |
| CCCCCCCCCC(=O)OC1=C(c2cc(C)ccc2C)C(=O)c2ccccc21 [reference compound] | – | – | 500 (≈ 1240 µM) | 1 |
| CCCCCCCCCC(=O)OC1=C(c2ccccc2C)C(=O)c2ccccc21 [reference compound] | – | – | 500 (≈ 1280 µM) | 1 |
| CCCCC(CC)C(=O)OC1=C(c2ccccc2C)C(=O)c2ccccc21 (centres unmarked) [reference compound] | – | – | 60 (≈ 166 µM) | 1 |
| CCCCCCCCCCCCCCCC(=O)OC1=C(c2ccc(Cl)cc2Cl)C(=O)CC1 [Compound 6] | B | 1 | – | – |
| CC(=O)OC1=C(c2ccc(Cl)cc2Cl)C(=O)CC1 [Compound 3] | A | 1 | – | – |
| CCCCCCCCCCCCCCCC(=O)OC1=C(c2cc(C)ccc2C)C(=O)C2CCCCC12 (centres unmarked) [Compound 33] | A | 1 | – | – |
| CCCCCCCCCCCCCCCC(=O)OC1=C(c2ccccc2C)C(=O)c2ccccc21 [reference compound] | – | – | 60 (≈ 126 µM) | 1 |
| CCCCCCCCCC(=O)OC1=C(c2ccccc2C)C(=O)C2CCCCC12 (centres unmarked) [Compound 23] | A | 3 | – | – |
| CC(C)C(=O)OC1=C(c2ccc(Cl)cc2Cl)C(=O)CC1 [Compound 4] | B | 1 | – | – |
| Cc1ccc(C2=C(OC(=O)c3ccccc3)CCC2=O)c(C)c1 [Compound 10] | B | 1 | – | – |
| Cc1ccccc1C1=C(OC(=O)C(C)C)C2CCCCC2C1=O (centres unmarked) [Compound 20] | A | 3 | – | – |

| SMILES | Miticidal, Egg [1] | Pre-emergent Herbicidal, Mustard (Mustard; Table II) | LC50 [1] [µg/mL] | Pre-emergent Herbicidal, Mustard (Mustard; Table III) |
| --- | --- | --- | --- | --- |
| Cc1ccc(C2=C(OC(=O)c3ccccc3)C3CCCCC3C2=O)c(C)c1 (centres unmarked) [Compound 27, 3-benzoyloxy-2-(2',4'-dimethylphenyl)-4,5,6,7,8,9-hexahydro-2-indenone] | A | 5 | – | – |
| CC(=O)OC1=C(c2cc(C)ccc2C)C(=O)C2CCCCC12 (centres unmarked) [Compound 28] | A | 1 | – | – |
| CCCCC(CC)C(=O)OC1=C(c2cc(C)ccc2C)C(=O)C(C)C1 (centres unmarked) [Compound 17] | A | 1 | – | – |
| CCCCCCCCCC(=O)OC1=C(c2cc(C)ccc2C)C(=O)C2CCCCC12 (centres unmarked) [Compound 32] | A | 1 | – | – |
| CCCCCCCCCCCCCCCC(=O)OC1=C(c2cc(C)ccc2C)C(=O)CC1 [Compound 14] | A | 1 | – | – |
| CC(=O)OC1=C(c2ccc(C)cc2C)C(=O)C2CCCCC12 (centres unmarked) [Compound 25] | A | 3 | – | – |
| Cc1ccc(C)c(C2=C(OC(=O)C(C)C)C3CCCCC3C2=O)c1 (centres unmarked) [Compound 29] | A | 1 | – | – |
| CCCCC(CC)C(=O)OC1=C(c2ccc(C)cc2C)C(=O)C2CCCCC12 (centres unmarked) [Compound 26, 3-(2-ethylhexanoyloxy)-2-(2',4'-dimethylphenyl)-4,5,6,7,8,9-hexahydro-2-indenone] | A | 1 | – | – |
| CCCCC(CC)C(=O)OC1=C(c2cc(C)ccc2C)C(=O)C2CCCCC12 (centres unmarked) [Compound 30, 3-(2-ethylhexanoyloxy)-2-(2',5'-dimethylphenyl)-4,5,6,7,8,9-hexahydro-2-indenone] | A | 1 | – | – |
| CC(=O)OC1=C(c2cc(C)ccc2C)C(=O)C(C)C1 (centres unmarked) [Compound 15] | B | 2 | – | – |
| CCCCC(CC)C(=O)OC1=C(c2ccc(C)cc2C)C(=O)CC1 (centres unmarked) [Compound 9, 3-(2-ethylhexanoyloxy)-2-(2', 4'-dimethylphenyl)-2-cyclopentenone] | A | 2 | – | – |
| CCCCC(CC)C(=O)OC1=C(c2ccccc2C)C(=O)C2CCCCC12 (centres unmarked) [Compound 21, 3-(2-Ethylhexanoyloxy)-2-(2'-methylphenyl)-4,5,6,7,8,9-hexahydro-2-indenone] | A | 1 | – | – |
| CCCCC(CC)C(=O)OC1=C(c2ccccc2Cl)C(=O)CC1 (centres unmarked) [Compound 1] | A | 5 | – | – |
| O=C1CCC(OC(=O)c2ccccc2)=C1c1ccccc1Cl [Compound 2] | A | 1 | – | – |
| CCCCCCCCCC(=O)OC1=C(c2cc(C)ccc2C)C(=O)C2CCCCC12 (centres unmarked) [drawing 19] | – | – | 8 (≈ 19.5 µM) | 1 |
| CCCCC(CC)C(=O)OC1=C(c2ccccc2C)C(=O)CC1 (centres unmarked) [drawing 21] | – | – | 125 (≈ 398 µM) | 1 |
| Cc1ccc(C)c(C2=C(OC(=O)C(C)(C)C)C3CCCCC3C2=O)c1 (centres unmarked) [Compound 31] | A | 1 | – | – |
| CC(=O)OC1=C(c2cc(C)ccc2C)C(=O)CC1 [Compound 11] | C | 3 | – | – |
| CCCCCCCCCCCCCCCC(=O)OC1=C(c2ccccc2C)C(=O)CC1 [Compound 8] | B | 1 | – | – |
| Cc1ccccc1C1=C(OC(=O)C(C)(C)C)C2CCCCC2C1=O (centres unmarked) [drawing 24] | – | – | 16 (≈ 49 µM) | 3 |
| Cc1ccc(C)c(C2=C(OC(=O)C(C)C)CCC2=O)c1 [Compound 12] | B | 1 | – | – |
